Counter-ions that a name gives are not always drawn.
molecular target: human GlyT1c transporter (Homo sapiens (Human), UniProt P48067); assay: Radioligand binding assay using recombinant CHO cell membranes expressing human GlyT1; settings: human GlyT1c-expressing CHO cell membranes; hydrochloride; read-out: radioligand binding Kiapp
Excerpt: 2. Radioligand binding assays using recombinant CHO cell membranes expressing human GlyT1: […]

human GlyT1c transporter, sequence (P48067 whole entry): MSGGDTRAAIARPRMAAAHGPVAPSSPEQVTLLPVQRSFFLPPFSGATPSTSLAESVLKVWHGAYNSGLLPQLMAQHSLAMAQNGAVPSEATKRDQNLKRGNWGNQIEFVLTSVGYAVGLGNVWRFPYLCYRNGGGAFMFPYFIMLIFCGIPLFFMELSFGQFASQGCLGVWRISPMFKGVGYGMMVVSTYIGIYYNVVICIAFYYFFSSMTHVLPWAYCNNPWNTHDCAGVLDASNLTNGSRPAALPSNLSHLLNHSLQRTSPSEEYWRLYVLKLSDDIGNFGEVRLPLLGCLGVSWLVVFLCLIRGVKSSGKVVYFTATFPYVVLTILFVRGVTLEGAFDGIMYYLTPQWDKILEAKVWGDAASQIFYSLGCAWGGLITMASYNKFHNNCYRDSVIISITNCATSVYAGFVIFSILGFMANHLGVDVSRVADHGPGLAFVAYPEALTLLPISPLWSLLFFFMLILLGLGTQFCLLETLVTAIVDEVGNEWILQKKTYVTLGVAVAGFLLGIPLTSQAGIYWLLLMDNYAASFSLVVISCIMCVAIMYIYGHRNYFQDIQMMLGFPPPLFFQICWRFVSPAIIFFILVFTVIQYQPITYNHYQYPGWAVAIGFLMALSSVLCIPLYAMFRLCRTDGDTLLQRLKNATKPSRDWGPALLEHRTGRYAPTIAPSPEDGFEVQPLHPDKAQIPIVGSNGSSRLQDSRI

SMILES	Ki [nM]
O=S(=O)(CC1CC1)NCCOc1ccc2c(c1)C(Cc1ccccc1)C(N1CCC1)CC2 (stereo not drawn) [Example 142, N-(2-{[7-(Azetidin-1-yl)-8-benzyl-5,6,7,8-tetrahydronaphthalen-2-yl]oxy}ethyl)-1-cyclopropylmethanesulfonamide hydrochloride]	≤ 100

same assay, conditions: human GlyT1c-expressing CHO cell membranes; read-out: radioligand binding Kiapp

SMILES	Ki [nM]
CN(CCOc1ccc2c(c1)C(Cc1cccc(Cl)c1)C(N)CC2)S(=O)(=O)CC1CC1 (stereo not drawn) [Example 291, N-{2-[7-Amino-8-(3-chloro-benzyl)-5,6,7,8-tetrahydro-naphthalen-2-yloxy]-ethyl}-C-cyclopropyl-N-methyl-methanesulfonamide]	≤ 10
CNC1CCc2ccc(OCCNS(=O)(=O)CC3CC3)cc2C1Cc1cc(F)cc(F)c1 (single isomer, unassigned; enantiomer 2) [Example 244, Enantiomer 2 of 1-cyclopropyl-N-(2-{[8-(3,5-difluorobenzyl)-7-(methylamino)-5,6,7,8-tetrahydronaphthalen-2-yl]oxy}ethylmethanesulfonamide hydrochloride]	≤ 10
CNC1CCc2ccc(CCNS(=O)(=O)c3cn(C)cn3)cc2C1Cc1cccc(Cl)c1 (stereo not drawn) [Example 313, 1-Methyl-1H-imidazole-4-sulfonic acid {2-[8-(3-chloro-benzyl)-7-methylamino-5,6,7,8-tetrahydro-naphthalen-2-yl]-ethyl}-amide]	≤ 100
Cn1cnc(S(=O)(=O)NCCOc2ccc3c(c2)C(Cc2cccc(Cl)c2)C(N2CCC2)CC3)c1 (stereo not drawn) [Example 321, 1-Methyl-1H-imidazole-4-sulfonic acid {2-[7-azetidin-1-yl-8-(3-chloro-benzyl)-5,6,7,8-tetrahydro-naphthalen-2-yloxy]-ethyl}-amide hydrochloride]	≤ 10
O=S(=O)(CC1CC1)NCCOc1ccc2c(c1)C(Cc1ccc(Cl)c(Cl)c1)C(N1CCC1)CC2 (stereo not drawn) [Example 135, N-(2-{[7-(Azetidin-1-yl)-8-(3,4-dichlorobenzyl)-5,6,7,8-tetrahydronaphthalen-2-yl]oxy}ethyl)-1-cyclopropylmethanesulfonamide]	≤ 100
Cn1cnc(S(=O)(=O)NCCOc2ccc3c(c2)C(Cc2ccccc2Cl)C(N)CC3)c1 (stereo not drawn) [Example 305, 1-Methyl-1H-imidazole-4-sulfonic acid {2-[7-amino-8-(2-chloro-benzyl)-5,6,7,8-tetrahydronaphthalen-2-yloxy]-ethyl}-amide hydrochloride]	≤ 100
CC(=O)NC1CCc2ccc(CCCNS(=O)(=O)CC3CC3)cc2C1Cc1ccccc1 (stereo not drawn) [Example 216, N-[1-Benzyl-7-(3-{[(cyclopropylmethyl)sulfonyl]amino}propyl)-1,2,3,4-tetrahydronaphthalen-2-yl]acetamide]	≤ 10000
CN(CCOc1ccc2c(c1)C(Cc1ccc(Cl)cc1)C(N)CC2)S(=O)(=O)CC1CC1 (stereo not drawn) [Example 129, N-(2-{[7-Amino-8-(4-chlorobenzyl)-5,6,7,8-tetrahydronaphthalen-2-yl]oxy}ethyl)-1-cyclopropyl-N-methylmethanesulfonamide hydrochloride]	≤ 10

Next, values leading:

Ki [nM]	SMILES
≤ 10	Cn1cnc(S(=O)(=O)NCCOc2ccc3c(c2)C(Cc2ccccc2)C(N)CC3)c1 (single isomer, unassigned; enantiomer 1) [Example 238, Enantiomer 1 of N-(2-{[7-amino-8-benzyl-5,6,7,8-tetrahydronaphthalen-2-yl]oxy}ethyl)-1-methyl-1H-imidazole-4-sulfonamide hydrochloride]
≤ 1000	Cn1cnc(S(=O)(=O)NCc2ccc3c(c2)C(Cc2ccccc2)C(N2CCCC2=O)CC3)c1 (stereo not drawn) [Example 263, N-{[8-Benzyl-7-(2-oxopyrrolidin-1-yl)-5,6,7,8-tetrahydronaphthalen-2-yl]methyl}-1-methyl-1H-imidazole-4-sulfonamide]
≤ 100	Cn1cc(S(=O)(=O)NCc2ccc3c(c2)C(Cc2ccccc2)C(N2CCOCC2)CC3)cn1 (stereo not drawn) [Example 258, N-{[8-Benzyl-7-(morpholin-4-yl)-5,6,7,8-tetrahydronaphthalen-2-yl]methyl}-1-methyl-1H-pyrazole-4-sulfonamide]
